{"source": "patent US10597388B2", "about": "“Pyridazinone herbicides” (FMC CORPORATION, priority 2014, dated 2020)", "assay_in_all_cases": "Test D controlled growth environment herbicide test, pre- and postemergence", "type_in_all_cases": "in vivo", "key": {"[1]": {"system": "oilseed rape (Brassica napus)", "procedure,_shortened": "(§1)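 Pre-emergence: seeds sown in silt loam soil were sprayed with compound in a non-phytotoxic solvent mix containing surfactant. Post-emergence: plants at 2 to 18 cm (1- to 4-leaf stage) in peat moss/vermiculite medium got the same formulation. Visual 0–100 rating versus controls after 14 to 21 d.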"}, "[2]": {"system": "pigweed (Amaranthus retroflexus)", "procedure,_shortened": "as §1"}, "[3]": {"system": "speedwell (bird's-eye speedwell, Veronica persica)", "procedure,_shortened": "as §1"}, "[4]": {"system": "bluegrass (annual bluegrass, Poa annua)", "procedure,_shortened": "as §1"}, "[5]": {"system": "field poppy (Papaver rhoeas)", "procedure,_shortened": "as §1"}, "[6]": {"system": "radish, wild (wild radish, Raphanus raphanistrum)", "procedure,_shortened": "as §1"}, "[7]": {"system": "barley, spring (spring barley, Hordeum vulgare)", "procedure,_shortened": "as §1"}, "[8]": {"system": "buckwheat, wild (wild buckwheat, Polygonum convolvulus)", "procedure,_shortened": "as §1"}, "[9]": {"system": "barley, winter (winter barley, Hordeum vulgare)", "procedure,_shortened": "as §1"}, "[10]": {"system": "galium (catchweed bedstraw, Galium aparine)", "procedure,_shortened": "as §1"}, "[11]": {"system": "mustard, wild (wild mustard, Sinapis arvensis)", "procedure,_shortened": "as §1"}, "[12]": {"system": "chamomile (scentless chamomile, Matricaria inodora)", "procedure,_shortened": "as §1"}, "[13]": {"system": "oat, wild (wild oat, Avena fatua)", "procedure,_shortened": "as §1"}, "[14]": {"conditions": "Postemergence, 31 g ai/ha, scale 0 to 100 (0 no effect, 100 complete control)"}, "[15]": {"conditions": "Postemergence, 125 g ai/ha, visual rating on scale 0 (no effect) to 100 (complete control), 14 to 21 d"}, "[16]": {"conditions": "Postemergence, 250 g ai/ha, scale 0 to 100 (0 no effect, 100 complete control)"}, "[17]": {"conditions": "Preemergence, 62 g ai/ha, scale 0 to 100 (0 no effect, 100 complete control)"}, "[18]": {"conditions": "Preemergence, 125 g ai/ha, scale 0 to 100 (0 no effect, 100 complete control)"}, "[19]": {"conditions": "Preemergence, 250 g ai/ha, scale 0 to 100 (0 no effect, 100 complete control)"}, "[20]": {"conditions": "postemergence, 62 g ai/ha, scale 0 to 100, 0 no effect, 100 complete control"}}}
{"compound": "Cc1ccc(-c2c(O)c(Br)nn(C)c2=O)c2ccccc12", "note": "[Compound 52]", "values": [{"measurement": "Oilseed Rape plant response rating", "setting": "[1]; [14]", "value": 0}, {"measurement": "Plant response rating, Oilseed Rape", "setting": "[1]; [15]", "value": 65}, {"measurement": "Plant response rating, Oilseed Rape", "setting": "[1]; [16]", "value": 80}, {"measurement": "Plant response rating (scale of 0 to 100), Oilseed Rape", "setting": "[1]; Preemergence, 31 g ai/ha", "value": 0}, {"measurement": "Plant response rating, Oilseed Rape", "setting": "[1]; [17]", "value": 0}, {"measurement": "Plant response rating, Oilseed Rape", "setting": "[1]; [18]", "value": 0}, {"measurement": "Plant response rating, Oilseed Rape", "setting": "[1]; [19]", "value": 55}, {"measurement": "Plant response rating, Oilseed Rape", "setting": "[1]; [20]", "value": 5}, {"measurement": "Pigweed plant response rating", "setting": "[2]; [14]", "value": 35}, {"measurement": "Plant response rating, Pigweed", "setting": "[2]; [15]", "value": 75}, {"measurement": "Plant response rating, Pigweed", "setting": "[2]; [16]", "value": 80}, {"measurement": "Plant response rating (scale of 0 to 100), Pigweed", "setting": "[2]; Preemergence, 31 g ai/ha", "value": 60}, {"measurement": "Plant response rating, Pigweed", "setting": "[2]; [17]", "value": 55}, {"measurement": "Plant response rating, Pigweed", "setting": "[2]; [18]", "value": 65}, {"measurement": "Plant response rating, Pigweed", "setting": "[2]; [19]", "value": 90}, {"measurement": "Plant response rating, Pigweed", "setting": "[2]; [20]", "value": 40}, {"measurement": "Speedwell plant response rating", "setting": "[3]; [14]", "value": 70}, {"measurement": "Plant response rating, Speedwell", "setting": "[3]; [15]", "value": 100}, {"measurement": "Plant response rating, Speedwell", "setting": "[3]; [16]", "value": 100}, {"measurement": "Plant response rating (scale of 0 to 100), Speedwell", "setting": "[3]; Preemergence, 31 g ai/ha", "value": 50}, {"measurement": "Plant response rating, Speedwell", "setting": "[3]; [17]", "value": 100}, {"measurement": "Plant response rating, Speedwell", "setting": "[3]; [18]", "value": 95}, {"measurement": "Plant response rating, Speedwell", "setting": "[3]; [19]", "value": 100}, {"measurement": "Plant response rating, Speedwell", "setting": "[3]; [20]", "value": 85}, {"measurement": "Bluegrass plant response rating", "setting": "[4]; [14]", "value": 5}, {"measurement": "Plant response rating, Bluegrass", "setting": "[4]; [15]", "value": 30}, {"measurement": "Plant response rating, Bluegrass", "setting": "[4]; [16]", "value": 30}, {"measurement": "Plant response rating (scale of 0 to 100), Bluegrass", "setting": "[4]; Preemergence, 31 g ai/ha", "value": 0}, {"measurement": "Plant response rating, Bluegrass", "setting": "[4]; [17]", "value": 10}, {"measurement": "Plant response rating, Bluegrass", "setting": "[4]; [18]", "value": 25}, {"measurement": "Plant response rating, Bluegrass", "setting": "[4]; [19]", "value": 35}, {"measurement": "Plant response rating, Bluegrass", "setting": "[4]; [20]", "value": 5}, {"measurement": "Field Poppy plant response rating", "setting": "[5]; [14]", "value": 85}, {"measurement": "Plant response rating, Field Poppy", "setting": "[5]; [15]", "value": 90}, {"measurement": "Plant response rating, Field Poppy", "setting": "[5]; [16]", "value": 100}, {"measurement": "Plant response rating (scale of 0 to 100), Field Poppy", "setting": "[5]; Preemergence, 31 g ai/ha", "value": 0}, {"measurement": "Plant response rating, Field Poppy", "setting": "[5]; [17]", "value": 0}, {"measurement": "Plant response rating, Field Poppy", "setting": "[5]; [18]", "value": 100}, {"measurement": "Plant response rating, Field Poppy", "setting": "[5]; [19]", "value": 100}, {"measurement": "Plant response rating, Field Poppy", "setting": "[5]; [20]", "value": 80}, {"measurement": "Radish, Wild plant response rating", "setting": "[6]; [14]", "value": 35}, {"measurement": "Plant response rating, Radish, Wild", "setting": "[6]; [15]", "value": 80}, {"measurement": "Plant response rating, Radish, Wild", "setting": "[6]; [16]", "value": 85}, {"measurement": "Plant response rating (scale of 0 to 100), Radish, Wild", "setting": "[6]; Preemergence, 31 g ai/ha", "value": 0}, {"measurement": "Plant response rating, Radish, Wild", "setting": "[6]; [17]", "value": 15}, {"measurement": "Plant response rating, Radish, Wild", "setting": "[6]; [18]", "value": 55}, {"measurement": "Plant response rating, Radish, Wild", "setting": "[6]; [19]", "value": 75}, {"measurement": "Plant response rating, Radish, Wild", "setting": "[6]; [20]", "value": 65}, {"measurement": "Barley, Spring plant response rating", "setting": "[7]; [14]", "value": 0}, {"measurement": "Plant response rating, Barley, Spring", "setting": "[7]; [15]", "value": 5}, {"measurement": "Plant response rating, Barley, Spring", "setting": "[7]; [16]", "value": 0}, {"measurement": "Plant response rating (scale of 0 to 100), Barley, Spring", "setting": "[7]; Preemergence, 31 g ai/ha", "value": 0}, {"measurement": "Plant response rating, Barley, Spring", "setting": "[7]; [17]", "value": 0}, {"measurement": "Plant response rating, Barley, Spring", "setting": "[7]; [18]", "value": 0}, {"measurement": "Plant response rating, Barley, Spring", "setting": "[7]; [19]", "value": 0}, {"measurement": "Plant response rating, Barley, Spring", "setting": "[7]; [20]", "value": 0}, {"measurement": "Buckwheat, Wild plant response rating", "setting": "[8]; [14]", "value": 100}, {"measurement": "Plant response rating, Buckwheat, Wild", "setting": "[8]; [15]", "value": 100}, {"measurement": "Plant response rating, Buckwheat, Wild", "setting": "[8]; [16]", "value": 100}, {"measurement": "Plant response rating (scale of 0 to 100), Buckwheat, Wild", "setting": "[8]; Preemergence, 31 g ai/ha", "value": 20}, {"measurement": "Plant response rating, Buckwheat, Wild", "setting": "[8]; [17]", "value": 20}, {"measurement": "Plant response rating, Buckwheat, Wild", "setting": "[8]; [18]", "value": 55}, {"measurement": "Plant response rating, Buckwheat, Wild", "setting": "[8]; [19]", "value": 100}, {"measurement": "Plant response rating, Buckwheat, Wild", "setting": "[8]; [20]", "value": 100}, {"measurement": "Barley, Winter plant response rating", "setting": "[9]; [14]", "value": 0}, {"measurement": "Plant response rating, Barley, Winter", "setting": "[9]; [15]", "value": 0}, {"measurement": "Plant response rating, Barley, Winter", "setting": "[9]; [16]", "value": 0}, {"measurement": "Plant response rating (scale of 0 to 100), Barley, Winter", "setting": "[9]; Preemergence, 31 g ai/ha", "value": 0}, {"measurement": "Plant response rating, Barley, Winter", "setting": "[9]; [17]", "value": 0}, {"measurement": "Plant response rating, Barley, Winter", "setting": "[9]; [18]", "value": 0}, {"measurement": "Plant response rating, Barley, Winter", "setting": "[9]; [19]", "value": 0}, {"measurement": "Plant response rating, Barley, Winter", "setting": "[9]; [20]", "value": 0}, {"measurement": "Galium plant response rating", "setting": "[10]; [14]", "value": 90}, {"measurement": "Plant response rating, Galium", "setting": "[10]; [15]", "value": 98}, {"measurement": "Plant response rating, Galium", "setting": "[10]; [16]", "value": 100}, {"measurement": "Plant response rating (scale of 0 to 100), Galium", "setting": "[10]; Preemergence, 31 g ai/ha", "value": 70}, {"measurement": "Plant response rating, Galium", "setting": "[10]; [17]", "value": 100}, {"measurement": "Plant response rating, Galium", "setting": "[10]; [18]", "value": 90}, {"measurement": "Plant response rating, Galium", "setting": "[10]; [19]", "value": 95}, {"measurement": "Plant response rating, Galium", "setting": "[10]; [20]", "value": 95}, {"measurement": "Mustard, Wild plant response rating", "setting": "[11]; [14]", "value": 20}, {"measurement": "Plant response rating, Mustard, Wild", "setting": "[11]; [15]", "value": 90}, {"measurement": "Plant response rating, Mustard, Wild", "setting": "[11]; [16]", "value": 100}, {"measurement": "Plant response rating (scale of 0 to 100), Mustard, Wild", "setting": "[11]; Preemergence, 31 g ai/ha", "value": 85}, {"measurement": "Plant response rating, Mustard, Wild", "setting": "[11]; [17]", "value": 100}, {"measurement": "Plant response rating, Mustard, Wild", "setting": "[11]; [18]", "value": 90}, {"measurement": "Plant response rating, Mustard, Wild", "setting": "[11]; [19]", "value": 98}, {"measurement": "Plant response rating, Mustard, Wild", "setting": "[11]; [20]", "value": 75}, {"measurement": "Chamomile plant response rating", "setting": "[12]; [14]", "value": 85}, {"measurement": "Plant response rating, Chamomile", "setting": "[12]; [15]", "value": 100}, {"measurement": "Plant response rating, Chamomile", "setting": "[12]; [16]", "value": 100}, {"measurement": "Plant response rating (scale of 0 to 100), Chamomile", "setting": "[12]; Preemergence, 31 g ai/ha", "value": 60}, {"measurement": "Plant response rating, Chamomile", "setting": "[12]; [17]", "value": 100}, {"measurement": "Plant response rating, Chamomile", "setting": "[12]; [18]", "value": 100}, {"measurement": "Plant response rating, Chamomile", "setting": "[12]; [19]", "value": 100}, {"measurement": "Plant response rating, Chamomile", "setting": "[12]; [20]", "value": 100}, {"measurement": "Oat, Wild plant response rating", "setting": "[13]; [14]", "value": 5}, {"measurement": "Plant response rating, Oat, Wild", "setting": "[13]; [15]", "value": 5}, {"measurement": "Plant response rating, Oat, Wild", "setting": "[13]; [16]", "value": 15}, {"measurement": "Plant response rating (scale of 0 to 100), Oat, Wild", "setting": "[13]; Preemergence, 31 g ai/ha", "value": 25}, {"measurement": "Plant response rating, Oat, Wild", "setting": "[13]; [17]", "value": 25}, {"measurement": "Plant response rating, Oat, Wild", "setting": "[13]; [18]", "value": 25}, {"measurement": "Plant response rating, Oat, Wild", "setting": "[13]; [19]", "value": 30}, {"measurement": "Plant response rating, Oat, Wild", "setting": "[13]; [20]", "value": 5}]}
